In US20230374025A1, “FGFR INHIBITOR COMPOUND AND USE THEREOF” (SHENZHEN KANGSU PHARMACEUTICAL TECHNOLOGY CO., LTD., priority 2021, published 2023):

Assays:
Assay type in all cases: biochemical
[1] = molecular target: T1, VEGFR2 (Homo sapiens, UniProt P35968); assay: Assay I: VEGFR2 kinase inhibition (HTRF KinEASE-TK); conditions: ATP 5 μM, substrate TK 1 μM
T1 construct: purchased Carna 08-191
Protocol: (§1) Assay I: Determination of Inhibitory Activity Against FGFR Mutants
(§2) 1. Reagents and Equipment
(§3) 2.1 Preparation of 1× Kinase Reaction Buffer:
(§4) 1× Kinase reaction buffer was formulated with 1× volume of 5× kinase reaction buffer and 4× volume of water; 5 mM MgCl2; and 1 mM DTT.
(§5) 2.3 Screening of Compounds:
(§6) 1. Diluting a compound 4-fold in a dilution plate with DMSO, with a starting compound concentration of 2 mM.
(§7) 2. Diluting the compound 40-fold into 1× kinase reaction buffer and shaking it on a shaker for 20 minutes.
3. Formulating 2×FGFR1 V561M/FGFR2 V564F/FGFR3 K650E/VEGFR2 with 1× of enzyme reaction buffer.
4. Adding 2 μl FGFR1 V561M/FGFR2 V564F/FGFR3 K650E/VEGFR2 kinase (formulated in step 3) to each well of the reaction plate.
(§8) 5. Adding 1 μl of the compound diluted in buffer to each well, sealing the plate with a sealing membrane and centrifuging the plate at 1000 g for 30 seconds and leaving it at room temperature for 10 minutes.
(§9) 6. Formulating 2.5×TK-substrate-biotin and ATP mixture with 1× enzyme reaction buffer and adding 2 μl of K-substrate-biotin/ATP mixture to the reaction plate.
(§10) 7. Sealing the plate with a sealing membrane and centrifuging the plate at 1000 g for 30 seconds and allowing it to react at room temperature for 50 minutes.
(§11) 8. Formulating 4× Sa-XL 665 (250 nM) with HTRF assay buffer.
(§12) 9. Adding 5 μl Sa-XL 665 and 5 μl TK-Antibody-Cryptate to each well, centrifuging it at 1000 g for 30 seconds, and allowing it to react for 1 hour at room temperature.
(§13) 10. Reading fluorescence signals at 615 nm (Cryptate) and 665 nm (XL665) with Biotek.
(§14) 3.1 Calculation of the ratio for each well: the ratio was calculated as 665/615 nm.
(§15) 3.3 Calculation of IC50 and plotting of inhibition curves for the compounds.
(§16) The IC50 (half inhibition concentration) of a compound was obtained using the following non-linear fitting equation, wherein data analysis was performed using Graphpad 6.0 software.
(§17) Y=Bottom+(Top−Bottom)/(1+10^((Log IC50−X)*Hill Slope)) • X: log value of compound concentration; and Y: inhibition rate (% inh)
(§18) 3.4 Validation of Results
(§19) Data were exported from Envision and analyzed manually. The ratios were converted to inhibition rates and IC50 was calculated by Prism GraphPad 6.0 from the inhibition rates. IC50 was calculated again by the ratios to verify accuracy of the results.
Positive control IC50 was within 3 times of the average value

[2] = molecular target: T2, FGFR3 V555M (Homo sapiens, UniProt P22607, V555M); assay: Assay I: inhibitory activity against FGFR mutants (HTRF KinEASE-TK); conditions: ATP 20 μM, substrate TK 1 μM
T2 construct: purchased Signalchem F06-12GG
Protocol: as §1, §2, §3, §4, §5, §6, §7, §8, §9, §10, §11, §12, §13, §14, §15, §16, §17, §18, §19

[3] = molecular target: T3, FGFR1 V561M (Homo sapiens, UniProt P11362, V561M); assay: as above; conditions: ATP 5 μM, substrate TK 1 μM
T3 construct: purchased Signalchem F04-13G
Protocol: as §1, §2, §3, §4, §5, §6, §7, §8, §9, §10, §11, §12, §13, §14, §15, §16, §17, §18, §19

[4] = molecular target: T4, FGFR2 V564F (Homo sapiens, UniProt P21802, V564F); assay: as above; conditions: ATP 10 μM, substrate TK 1 μM
T4 construct: purchased Signalchem F05-12FG
Protocol: as §1, §2, §3, §4, §5, §6, §7, §8, §9, §10, §11, §12, §13, §14, §15, §16, §17, §18, §19

T2 sequence (P22607 397-806 V555M limits assumed): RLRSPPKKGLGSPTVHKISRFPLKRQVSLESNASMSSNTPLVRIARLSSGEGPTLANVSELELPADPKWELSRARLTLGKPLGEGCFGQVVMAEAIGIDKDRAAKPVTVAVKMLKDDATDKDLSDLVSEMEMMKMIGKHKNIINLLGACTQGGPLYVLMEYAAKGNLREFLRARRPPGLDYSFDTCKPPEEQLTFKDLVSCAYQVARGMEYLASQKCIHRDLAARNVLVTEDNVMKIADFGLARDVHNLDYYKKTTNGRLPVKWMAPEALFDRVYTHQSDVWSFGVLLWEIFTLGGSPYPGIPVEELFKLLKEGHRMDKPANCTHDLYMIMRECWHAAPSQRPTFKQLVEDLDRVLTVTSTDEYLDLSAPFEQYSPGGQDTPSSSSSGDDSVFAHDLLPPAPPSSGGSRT
T3 sequence (P11362 22-822 V561M): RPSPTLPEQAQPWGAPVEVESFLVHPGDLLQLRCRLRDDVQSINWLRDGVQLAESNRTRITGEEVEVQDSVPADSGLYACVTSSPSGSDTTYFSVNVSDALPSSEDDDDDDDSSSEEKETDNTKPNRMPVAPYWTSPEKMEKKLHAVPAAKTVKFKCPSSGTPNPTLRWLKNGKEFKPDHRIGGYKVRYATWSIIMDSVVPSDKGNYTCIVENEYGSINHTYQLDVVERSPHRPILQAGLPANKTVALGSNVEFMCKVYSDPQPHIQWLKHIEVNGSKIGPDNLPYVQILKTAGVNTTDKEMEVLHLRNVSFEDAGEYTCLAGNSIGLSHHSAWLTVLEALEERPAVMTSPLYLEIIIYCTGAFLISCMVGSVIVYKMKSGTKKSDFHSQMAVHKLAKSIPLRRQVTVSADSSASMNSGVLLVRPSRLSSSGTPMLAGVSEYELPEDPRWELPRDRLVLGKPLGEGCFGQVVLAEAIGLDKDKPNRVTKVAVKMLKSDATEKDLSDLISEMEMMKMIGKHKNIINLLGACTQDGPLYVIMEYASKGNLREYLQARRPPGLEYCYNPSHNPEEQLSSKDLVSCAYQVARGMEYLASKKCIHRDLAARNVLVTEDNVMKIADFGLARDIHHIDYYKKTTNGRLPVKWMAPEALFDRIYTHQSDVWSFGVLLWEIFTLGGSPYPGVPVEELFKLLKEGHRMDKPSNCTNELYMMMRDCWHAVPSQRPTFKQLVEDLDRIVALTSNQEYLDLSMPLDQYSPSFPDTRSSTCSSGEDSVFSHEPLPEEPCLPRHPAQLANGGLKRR
T4 sequence (P21802 22-821 V564F): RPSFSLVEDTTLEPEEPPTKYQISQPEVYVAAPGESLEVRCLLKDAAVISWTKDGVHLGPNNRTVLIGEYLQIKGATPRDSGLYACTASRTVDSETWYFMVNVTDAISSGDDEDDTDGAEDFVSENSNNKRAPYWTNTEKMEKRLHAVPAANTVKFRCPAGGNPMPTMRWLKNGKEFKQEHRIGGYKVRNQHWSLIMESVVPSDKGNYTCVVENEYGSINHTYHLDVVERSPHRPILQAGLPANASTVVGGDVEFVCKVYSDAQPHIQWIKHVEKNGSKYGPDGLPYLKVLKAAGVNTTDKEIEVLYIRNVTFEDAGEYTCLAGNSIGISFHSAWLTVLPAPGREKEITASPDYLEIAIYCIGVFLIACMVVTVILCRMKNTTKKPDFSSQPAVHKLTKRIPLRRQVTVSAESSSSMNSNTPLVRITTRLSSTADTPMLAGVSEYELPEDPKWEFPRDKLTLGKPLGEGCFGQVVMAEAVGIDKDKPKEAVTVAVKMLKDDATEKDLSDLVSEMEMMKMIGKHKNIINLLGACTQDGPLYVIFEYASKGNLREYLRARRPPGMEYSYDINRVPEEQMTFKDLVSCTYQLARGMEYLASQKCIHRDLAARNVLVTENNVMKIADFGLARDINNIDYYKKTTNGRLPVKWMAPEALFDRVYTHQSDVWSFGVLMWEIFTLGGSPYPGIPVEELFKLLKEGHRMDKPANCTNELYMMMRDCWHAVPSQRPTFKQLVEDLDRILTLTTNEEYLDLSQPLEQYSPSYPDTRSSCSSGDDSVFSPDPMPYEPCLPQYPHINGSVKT
T1 sequence (P35968 20-1356): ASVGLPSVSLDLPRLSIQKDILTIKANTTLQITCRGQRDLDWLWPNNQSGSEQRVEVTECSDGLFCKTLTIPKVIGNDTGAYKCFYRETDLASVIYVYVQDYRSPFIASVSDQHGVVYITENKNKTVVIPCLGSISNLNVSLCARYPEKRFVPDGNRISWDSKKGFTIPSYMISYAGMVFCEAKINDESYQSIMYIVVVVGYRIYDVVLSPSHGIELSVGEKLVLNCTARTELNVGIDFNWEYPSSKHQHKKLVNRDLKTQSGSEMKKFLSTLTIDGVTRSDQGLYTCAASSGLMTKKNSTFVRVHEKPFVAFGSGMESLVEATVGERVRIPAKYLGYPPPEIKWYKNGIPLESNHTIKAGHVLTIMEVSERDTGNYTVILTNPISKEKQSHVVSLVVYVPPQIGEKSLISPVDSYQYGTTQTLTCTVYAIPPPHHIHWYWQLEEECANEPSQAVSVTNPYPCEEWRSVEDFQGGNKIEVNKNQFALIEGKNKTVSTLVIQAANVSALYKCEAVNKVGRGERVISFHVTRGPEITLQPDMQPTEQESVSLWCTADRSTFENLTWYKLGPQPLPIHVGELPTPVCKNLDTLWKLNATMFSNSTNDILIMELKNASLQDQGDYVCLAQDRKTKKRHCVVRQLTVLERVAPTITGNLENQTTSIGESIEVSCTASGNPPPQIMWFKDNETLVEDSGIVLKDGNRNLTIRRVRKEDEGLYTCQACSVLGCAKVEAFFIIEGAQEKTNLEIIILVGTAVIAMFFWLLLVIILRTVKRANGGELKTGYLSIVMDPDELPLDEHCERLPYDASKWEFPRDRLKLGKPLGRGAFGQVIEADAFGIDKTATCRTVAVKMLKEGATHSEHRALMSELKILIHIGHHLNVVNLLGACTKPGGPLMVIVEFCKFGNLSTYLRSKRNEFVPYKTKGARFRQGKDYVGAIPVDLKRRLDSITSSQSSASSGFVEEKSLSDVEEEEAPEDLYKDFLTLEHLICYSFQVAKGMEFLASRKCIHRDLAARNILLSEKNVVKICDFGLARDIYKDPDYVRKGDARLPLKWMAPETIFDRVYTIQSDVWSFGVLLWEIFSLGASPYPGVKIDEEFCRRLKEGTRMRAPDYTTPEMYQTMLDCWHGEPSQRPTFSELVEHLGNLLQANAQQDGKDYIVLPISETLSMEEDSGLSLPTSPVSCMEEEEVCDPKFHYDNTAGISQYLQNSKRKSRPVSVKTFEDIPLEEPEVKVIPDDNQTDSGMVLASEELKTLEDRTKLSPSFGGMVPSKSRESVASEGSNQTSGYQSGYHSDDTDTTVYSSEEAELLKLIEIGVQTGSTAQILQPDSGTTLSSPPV

SMILES | IC50 [1] | IC50 [2] | IC50 [3] | IC50 [4]
CC(Oc1ccc2[nH]nc(-c3nc4c([nH]3)CN(CC3CCN(C)CC3)C4)c2c1)c1c(Cl)cncc1Cl (stereo not drawn) [Compound 2, 5-(1-(3,5-dichloropyridin-4-yl)ethoxy)-3-(5-((1-methylpiperidin-4-yl)methyl)-1,4,5,6-tetrahydropyrrolo[3,4-d]imidazol-2-yl)-1H-indazole] | 2.6 nM | 0.05 nM | 0.21 nM | 0.1 nM
CC(Oc1ccc2[nH]nc(-c3nc4c([nH]3)CN(C3CCN(C)CC3)C4)c2c1)c1c(Cl)cncc1Cl (stereo not drawn) [Compound 3, 5-(1-(3,5-dichloropyridin-4-yl)ethoxy)-3-(5-(1-methylpiperidin-4-yl)-1,4,5,6-tetrahydropyrrolo[3,4-d]imidazol-2-yl)-1H-indazole] | 5.4 nM | 0.67 nM | 0.65 nM | 0.25 nM
CC(Oc1ccc2[nH]nc(-c3nc4c([nH]3)CN(C3CCN(C)CC3)CC4)c2c1)c1c(Cl)cncc1Cl (stereo not drawn) [Compound 4, 2-(5-(1-(3,5-dichloropyridin-4-yl)ethoxy)-1H-indazol-3-yl)-5-(1-methylpiperidin-4-yl)-4,5,6,7-tetrahydro-3H-imidazo[4,5-c]pyridine] | 17.6 nM | 0.16 nM | 0.31 nM | 0.19 nM
CC(Oc1ccc2[nH]nc(-c3nc4c([nH]3)CN(C(=O)C3CCN(C)CC3)C4)c2c1)c1c(Cl)cncc1Cl (stereo not drawn) [Compound 6, (2-(5-(1-(3,5-dichloropyridin-4-yl)ethoxy)-1H-indazol-3-yl)-4,6-dihydropyrrolo[3,4-d]imidazol-5(1H)-yl)(1-methylpiperidin-4-yl)ketone] | 3.1 nM | 0.12 nM | 0.38 nM | 0.11 nM
CC(Oc1ccc2[nH]nc(-c3nc4c([nH]3)CN(S(=O)(=O)c3cccnc3)C4)c2c1)c1c(Cl)cncc1Cl (stereo not drawn) [Compound 7, 5-(1-(3,5-dichloropyridin-4-yl)ethoxy)-3-(5-(pyridin-3-ylsulfonyl)-1,4,5,6-tetrahydropyrrolo[3,4-d]imidazol-2-yl)-1H-indazole] | 42.9 nM | 4 nM | 1.6 nM | 3.1 nM
CC(Oc1ccc2[nH]nc(-c3nc4c([nH]3)CN(C(=O)[C@@H]3CCNC3)C4)c2c1)c1c(Cl)cncc1Cl (stereo partly drawn) [Compound 9, (2-(5-(1-(3,5-dichloropyridin-4-yl)ethoxy)-1H-indazol-3-yl)-4,6-dihydropyrrolo[3,4-d]imidazol-5(1H)-yl)((R)-pyrrolidin-3-yl)ketone] | 5.6 nM | 0.16 nM | 0.41 nM | 0.27 nM
CC(Oc1ccc2[nH]nc(-c3nc4c([nH]3)CN(CCN3CCOCC3)C4)c2c1)c1c(Cl)cncc1Cl (stereo not drawn) [Compound 12] | 14.2 nM | 0.21 nM | 1.2 nM | 0.29 nM
CC(Oc1ccc2[nH]nc(-c3nc4c([nH]3)CN(C(=O)CN3CCOCC3)C4)c2c1)c1c(Cl)cncc1Cl (stereo not drawn) [Compound 13, 1-(2-(5-(1-(3,5-dichloropyridin-4-yl)ethoxy)-1H-indazol-3-yl)-4,6-dihydropyrrolo[3,4-d]imidazol-5(1H)-yl)-2-morpholinoethan-1-one] | 5.5 nM | 0.22 nM | 0.46 nM | 0.31 nM
CC(Oc1ccc2[nH]nc(-c3nc4c([nH]3)CN(C(=O)CN(C)C)C4)c2c1)c1c(Cl)cncc1Cl (stereo not drawn) [Compound 14, 1-(2-(5-(1-(3,5-dichloropyridin-4-yl)ethoxy)-1H-indazol-3-yl)-4,6-dihydropyrrolo[3,4-d]imidazol-5(1H)-yl)-2-(dimethylamino)ethan-1-one] | 6.1 nM | 0.03 nM | 0.11 nM | 0.09 nM
CC(Oc1ccc2[nH]nc(-c3nc4c([nH]3)CN(CCO)C4)c2c1)c1c(Cl)cncc1Cl (stereo not drawn) [Compound 15, 2-(2-(5-(1-(3,5-dichloropyridin-4-yl)ethoxy)-1H-indazol-3-yl)-4,6-dihydropyrrolo[3,4-d]imidazol-5(1H)-yl)ethan-1-ol] | 67 nM | 2 nM | 3.6 nM | 2 nM
CC(Oc1ccc2[nH]nc(-c3nc4c([nH]3)CN(S(C)(=O)=O)C4)c2c1)c1c(Cl)cncc1Cl (stereo not drawn) [Compound 16, 5-(1-(3,5-dichloropyridin-4-yl)ethoxy)-3-(5-(methylsulfonyl)-1,4,5,6-tetrahydropyrrolo[3,4-d]imidazol-2-yl)-1H-indazole] | 22.1 nM | 0.35 nM | 0.39 nM | 0.22 nM
COC(=O)N1Cc2nc(-c3n[nH]c4ccc(OC(C)c5c(Cl)cncc5Cl)cc34)[nH]c2C1 (stereo not drawn) [Compound 17, Methyl 2-(5-(1-(3,5-dichloropyridin-4-yl)ethoxy)-1H-indazol-3-yl)-4,6-dihydropyrrolo[3,4-d]imidazole-5(1H)-carboxylate] | 49 nM | 0.21 nM | 1.2 nM | 0.74 nM
CC(Oc1ccc2[nH]nc(-c3nc4c([nH]3)CN(S(=O)(=O)c3cnn(C)c3)C4)c2c1)c1c(Cl)cncc1Cl (stereo not drawn) [Compound 18, 5-(1-(3,5-dichloropyridin-4-yl)ethoxy)-3-(5-((1-methyl-1H-pyrazol-4-yl)sulfonyl)-1,4,5,6-tetrahydropyrrolo[3,4-d]imidazol-2-yl)-1H-indazole] | 19.6 nM |  | 2.2 nM | 1.2 nM
CC(Oc1ccc2[nH]nc(-c3nc4c([nH]3)CNC4)c2c1)c1c(Cl)cncc1Cl (stereo not drawn) [Compound 19, 5-(1-(3,5-dichloropyridin-4-yl)ethoxy)-3-(1,4,5,6-tetrahydropyrrolo[3,4-d]imidazol-2-yl)-1H-indazole] | 31 nM | 0.76 nM | 0.6 nM | 0.59 nM
CC(Oc1ccc2[nH]nc(-c3nc4c([nH]3)CN(S(=O)(=O)c3ccn(C)n3)C4)c2c1)c1c(Cl)cncc1Cl (stereo not drawn) [Compound 20, 5-(1-(3,5-dichloropyridin-4-yl)ethoxy)-3-(5-((1-methyl-1H-pyrazol-3-yl)sulfonyl)-1,4,5,6-tetrahydropyrrolo[3,4-d]imidazol-2-yl)-1H-indazole] | 13.3 nM |  | 1.8 nM | 1.7 nM
CC(Oc1ccc2[nH]nc(-c3nc4c([nH]3)CN(C3CC(O)C3)C4)c2c1)c1c(Cl)cncc1Cl (stereo not drawn) [Compound 21, 3-(2-(5-(1-(3,5-dichloropyridin-4-yl)ethoxy)-1H-indazol-3-yl)-4,6-dihydropyrrolo[3,4-d]imidazol-5(1H)-yl)cyclobutan-1-ol] | 26 nM | 0.64 nM | 0.97 nM | 0.66 nM
C[C@@H](Oc1ccc2[nH]nc(-c3nc4c([nH]3)CN(C3CCN(S(C)(=O)=O)C3)C4)c2c1)c1c(Cl)cncc1Cl (stereo partly drawn) [Compound 39, 5-((R)-1-(3,5-Dichloropyridin-4-yl)ethoxy)-3-(5-(1-(methylsulfonyl)pyrrolidin-3-yl)-1,4,5,6-tetrahydropyrrolo[3,4-d]imidazol-2-yl)-1H-indazole] | 60.5 nM | 1.4 nM |  | 1.3 nM
C[C@@H](Oc1ccc2[nH]nc(-c3nc4c([nH]3)CN(C(=O)CN3CCC(F)C3)C4)c2c1)c1c(Cl)cncc1Cl (stereo partly drawn) [Compound 48, 1-(2-(5-((R)-1-(3,5-Dichloropyridin-4-yl)ethoxy)-1H-indazol-3-yl)-4,6-dihydropyrrolo[3,4-d]imidazol-5(1H)-yl)-2-(3-fluoropyrrolidin-1-yl)ethan-1-one] | 11.1 nM | 0.33 nM |  | 0.084 nM
C[C@@H](Oc1ccc2[nH]nc(-c3nc4c([nH]3)CN(C(=O)CN3CCC(C#N)C3)C4)c2c1)c1c(Cl)cncc1Cl (stereo partly drawn) [Compound 49, 1-(2-(2-(5-((R)-1-(3,5-dichloropyridin-4-yl)ethoxy)-1H-indazol-3-yl)-4,6-dihydropyrrolo[3,4-d]imidazol-5(1H)-yl)-2-oxoethyl)pyrrolidine-3-carbonitrile] | 6.7 nM | 0.19 nM |  | 0.017 nM
CCN1CCN(c2ccc(Nc3cc(N(C)C(=O)Nc4c(Cl)c(OC)cc(OC)c4Cl)ncn3)cc2)CC1 [Infigratinib, reference compound] | 99 nM |  |  | 
